SMILES strings stand for the structures.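 Values below derive from 48-hour exposures of cells grown in 96-well plates, with endpoints linearly interpolated between the two concentrations bracketing the appropriate inhibition level. GI50: concentration for 50% inhibition of growth.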 The source made the active and inactive calls. No stated cut-off is given here; in the data, active = GI50 up to about 1.1 µM and inactive = higher. Where only a bound is given, the exact number is not on record here.

Assay in all cases: DTP human tumour cell line panel, 48 h
The test system of assay [1] is U-251.
Assay [2] deals with HCC 2998.
In assay [3] the test system is EKVX.
Assay [4] has as its system LOX IMVI.
Assay [5] has as its system SF-295.
The subject of assay [6] is NCI/ADR-RES.
Assay [7] has as its system SF-268.
Assay [8] concerns SNB-75.
Assay [9] deals with PC-3.
The test system of assay [10] is IGROV-1.
Assay [11] deals with A498.
Assay [12] deals with SR.
Assay [13] deals with NCI-H522.
Assay [14] concerns HOP-62.
For assay [15], the system named is BT-549.
Assay [16] has as its system OVCAR-5.
In assay [17] the test system is M14.
Assay [18] has as its system T47D.
Assay [19] relates to HT-29.

As usually defined, the GI50 is the concentration giving 50% growth inhibition. For `NC(=O)C1=CC2C3C=CC2(O)C(=O)OC3O1` (stereo not given), the GI50 is 8.59 µM (inactive) in [1]; 12.2 µM (inactive) in assay [2]; 3.44 µM (inactive) in assay [3]; 2.14 µM (inactive) in [4]; 11.9 µM (inactive) in assay [5]; 2.46 µM (inactive) in [6]. For the same compound, the GI50 in assay [7] was 3.73 µM (inactive); in assay [8], 7.98 µM (inactive); in assay [9], 3.57 µM (inactive); in assay [10], 2.92 µM (inactive); in assay [11], 32.7 µM (inactive); in [12] it was 1.68 µM (inactive). Besides, the GI50 is 1.83 µM (inactive) in [13]; 9.06 µM (inactive) in [14]; 4.06 µM (inactive) in [15]; 22.8 µM (inactive) in [16]; 2.97 µM (inactive) in assay [17]; 3.36 µM (inactive) in assay [18]. Also, the GI50 in [19] is 2.92 µM (inactive).
Turning to `OC1c2c(ccc3c2CCC3)CC12Cc1ccccc1C2` (stereo not given), the GI50 in assay [1] is 15.9 µM (inactive); in assay [2], 13.5 µM (inactive); in assay [3], 16.4 µM (inactive); in [4], 15.9 µM (inactive); in assay [5], 17.1 µM (inactive); in assay [6], 14.3 µM (inactive). Further, the GI50 in [7] is 14.7 µM (inactive); in [8], 13.8 µM (inactive); in assay [9] it was 15.3 µM (inactive); in [10], 17.7 µM (inactive); in [11], 16.2 µM (inactive); in assay [12], 10.9 µM (inactive). Also, the GI50 in [13] is 16.3 µM (inactive); in assay [14] it was 16.4 µM (inactive); in [15] it was 16.9 µM (inactive); in [16], 17.2 µM (inactive); in assay [17], 15.3 µM (inactive); in assay [18], 16.5 µM (inactive). For the same compound, the GI50 in assay [19] was 17 µM (inactive).
As for `COc1cc(CNc2c3ccccc3nc3ccccc23)cc(OC)c1OC`, the GI50 in assay [1] is 5.08 µM (inactive); in [2], 2.78 µM (inactive); in assay [3], 5.78 µM (inactive); in assay [4], 2.39 µM (inactive); in assay [5], 3.56 µM (inactive); in assay [6], 4.16 µM (inactive). In addition, the GI50 in assay [7] is 4.07 µM (inactive); in assay [8], 4.02 µM (inactive); in [9], 3.23 µM (inactive); in assay [10], 3.81 µM (inactive); in [11] it was 1.82 µM (inactive); in assay [12] it was 3.08 µM (inactive). Moreover, the GI50 was 2.55 µM (inactive) in assay [13]; 2.93 µM (inactive) in assay [14]; 3.87 µM (inactive) in [15]; 3.92 µM (inactive) in assay [16]; 2.59 µM (inactive) in [17]; 6.38 µM (inactive) in assay [18]. Further, in [19], the GI50 was 2.49 µM (inactive).
Take `C=C(C)C(=O)O[C@@H]1C[C@@]2(C)O[C@@H]2C[C@H](O)/C(C)=C/[C@H]2OC(=O)C(=C)[C@@H]21`: the GI50 is > 100 µM (inactive) in assay [1]; > 100 µM (inactive) in assay [2]; 62.2 µM (inactive) in [3]; 29.9 µM (inactive) in assay [4]; > 100 µM (inactive) in [5]; 60.7 µM (inactive) in assay [6]. The GI50 is > 100 µM (inactive) in assay [7]; > 100 µM (inactive) in assay [8]; > 100 µM (inactive) in [9]; > 100 µM (inactive) in [10]; > 100 µM (inactive) in [11]; 28.2 µM (inactive) in assay [12]. Besides, the GI50 is 12.6 µM (inactive) in assay [13]; > 100 µM (inactive) in assay [14]; 63.1 µM (inactive) in assay [15]; > 100 µM (inactive) in assay [16]; 43.1 µM (inactive) in assay [17]; 50.7 µM (inactive) in [18]. Besides, in [19], the GI50 was 61.5 µM (inactive).
With `COC(=O)c1cc2c3c(cc(NCCN)c2[nH]1)N(C(=O)c1cc2cc(OC)c(OC)c(OC)c2[nH]1)CC3CCl` (stereo not given), the GI50 in assay [1] is 0.0144 µM (active); in [2], 0.0982 µM (active); in assay [3] it was 0.158 µM (active); in assay [4], 0.0186 µM (active); in assay [5], 0.228 µM (active); in assay [6] it was 0.358 µM (active). Also, the 50% growth inhibitory concentration (GI50) is 0.0213 µM (active) in [7]; 0.0382 µM (active) in assay [8]; 0.0269 µM (active) in assay [9]; 0.012 µM (active) in [10]; 0.131 µM (active) in [11]; 0.0153 µM (active) in assay [12]. Moreover, the concentration for 50% growth inhibition (GI50) in assay [13] is < 0.01 µM (active); in assay [14], 0.17 µM (active); in [15], 0.229 µM (active); in [16] it was 0.0393 µM (active); in assay [17], 0.118 µM (active); in [18], 0.031 µM (active). The GI50 in assay [19] is 0.0277 µM (active).
For the compound `CC1(C)CC(=O)c2c(nc(SSc3nc4c(c(-c5ccc(Br)cc5)c3C#N)C(=O)CC(C)(C)C4)c(C#N)c2-c2ccc(Br)cc2)C1`, the GI50 in [1], in assay [2], in assay [3], in [4], in assay [5] and in assay [6] was > 10 µM (inactive) each time. In addition, the GI50 in assay [7], in [8], in [9], in assay [10], in assay [11] and in assay [12] was > 10 µM (inactive) throughout. The GI50 in assay [13], in [14], in assay [15], in assay [16], in [17] and in assay [18] was > 10 µM (inactive) in each case. Moreover, the GI50 in assay [19] was > 10 µM (inactive).
As for `CCOC(=O)C1=CNC(C(=O)OCC)C1c1cccn1-c1ccc(Cl)cc1[N+](=O)[O-]` (stereo not given), the GI50 is 20.7 µM (inactive) in assay [1]; 16.3 µM (inactive) in [2]; 17.9 µM (inactive) in assay [3]; 15.9 µM (inactive) in assay [4]; 16.4 µM (inactive) in assay [5]; 18.5 µM (inactive) in [6]. The GI50 in assay [7] was 18.2 µM (inactive); in assay [8] it was 17.4 µM (inactive); in assay [9], 20.7 µM (inactive); in [10], 9.4 µM (inactive); in assay [11], 50.7 µM (inactive); in assay [12], 25.7 µM (inactive). For the same compound, the GI50 in assay [13] is 16 µM (inactive); in assay [14], 10 µM (inactive); in assay [15] it was 22.8 µM (inactive); in assay [16], 12.5 µM (inactive); in assay [17], 15.3 µM (inactive); in assay [18] it was 24.2 µM (inactive). Further, the GI50 in assay [19] is 16.1 µM (inactive).
For the compound `C(=C\c1ccccc1)/C=N/c1nc2cc3sc(/N=C/C=C/c4ccccc4)nc3cc2s1`, the GI50 in assay [1] is 25 µM (inactive); in assay [2], > 100 µM (inactive); in assay [3] it was 73.1 µM (inactive); in [4] it was 29.9 µM (inactive); in [5], > 78 µM (inactive); in assay [6], > 100 µM (inactive). Moreover, the GI50 was > 63.4 µM (inactive) in [7]; > 100 µM (inactive) in assay [8]; > 79.8 µM (inactive) in assay [9]; > 63.2 µM (inactive) in [10]; > 42.5 µM (inactive) in assay [11]; 2.95 µM (inactive) in assay [12]. For the same compound, the GI50 in assay [13] was 18.2 µM (inactive); in assay [14], 99.3 µM (inactive); in assay [15], > 96.2 µM (inactive); in [16], > 78.7 µM (inactive); in [17] it was > 100 µM (inactive); in [18], 47 µM (inactive). In addition, in [19], the GI50 is 30.6 µM (inactive).
Take `CCC(=O)C(CCN1CCC2(CCCc3ccccc32)CC1)(c1ccccc1)c1ccccc1`: the GI50 in assay [1] was 2.62 µM (inactive); in assay [2], 2.64 µM (inactive); in [3], 4 µM (inactive); in assay [4] it was 0.851 µM (active); in assay [5], 2.02 µM (inactive); in assay [6] it was 3.19 µM (inactive). The GI50 in [7] was 5.92 µM (inactive); in assay [8], 2.95 µM (inactive); in assay [9], 2.45 µM (inactive); in [10], 2.77 µM (inactive); in assay [11], 1.98 µM (inactive); in [12] it was 1.66 µM (inactive). For the same compound, the GI50 was 1.75 µM (inactive) in assay [13]; 3.28 µM (inactive) in assay [14]; 0.685 µM (active) in assay [15]; 3.74 µM (inactive) in assay [16]; 1.87 µM (inactive) in [17]; 3.29 µM (inactive) in assay [18]. Besides, the 50% growth inhibitory concentration (GI50) in [19] is 0.993 µM (active).
In the case of `CC(C)(C)c1ccc(-c2nc3ccc([N+](=O)[O-])cc3c(=O)o2)cc1`, the GI50 was 15 µM (inactive) in assay [1]; 12.9 µM (inactive) in assay [2]; 25.4 µM (inactive) in [3]; 15.3 µM (inactive) in assay [4]; 20.8 µM (inactive) in [5]; 25.4 µM (inactive) in assay [6]. The GI50 was 35.7 µM (inactive) in assay [7]; 24.9 µM (inactive) in assay [8]; 21.2 µM (inactive) in assay [9]; 44.2 µM (inactive) in assay [10]; 29.9 µM (inactive) in assay [11]; 22.7 µM (inactive) in assay [12]. For the same compound, the GI50 in [13] was 20.1 µM (inactive); in assay [14] it was 22.2 µM (inactive); in assay [15] it was 24.1 µM (inactive); in assay [16], 32.8 µM (inactive); in assay [17], 26.5 µM (inactive); in [18], 40.5 µM (inactive). Further, the GI50 in [19] is 24.7 µM (inactive).

The values are drawn from ChEMBL document CHEMBL1201862, “PubChem BioAssay data set” (2004).
